# Laboratory results as given in patent US20260015322A1, “DELIVERY OF THERAPEUTIC ALKALOID COMPOUNDS” (priority 2022, published 2026).
# Like-named read-outs stand apart in the source and are kept apart here.
# Legend:
# [1] = Plasma Stability Assay (Example A2), mouse plasma; assay type: in vitro ADME; conditions: Mouse Plasma, 37° C., prodrug remaining
# Experimental: (§1) Each test was carried out in duplicate for each time point; 0 min, 15 min, 30 min, 60 min, 120, 240 min. […]
# [2] = Hydrolysis Assay - Condition 1 (SGF); assay type: physicochemical; conditions: Condition 1: SGF with pepsin pH 1.5, 37° C., 0.5 mM
# Experimental: 50 uL of compound (10 mM) in DMSO was diluted into 950 uL of Simulated Gastric Fluid (SGF) with pepsin (pH 1.5) to a final concentration of 0.5 mM. The hydrolysis kinetics were conducted at 37° C. and measured by LCMS at a certain time interval.
# (§2) The corresponding LCMS chromatogram were recorded and the conversions were calculated by integration of each peak.
# (§3) • 1) LCMS spectra were obtained using Agilent 1200G1956A or SHIMADZU LCMS-2020. • Standard LCMS conditions were as follows (running time 1.55 minutes): • Acidic condition: Mobile Phase A: 0.0375% TFA in water (v/v). Mobile Phase B: 0.01875% TFA in acetonitrile (v/v); Column: Kinetex EVO C18 30*2.1 mm, 5 μm. • Basic condition: Mobile Phase A: 0.025% NH3·H2O in water (v/v). Mobile Phase B: Acetonitrile; Column: Kinetex EVO C18 2.1×30 mm, 5 μm. • 2) Conversion (%)=peak area 1/(peak area 1+peak area 2)*100%, peak area 1 is the integration of hydrolyzed product, peak area 2 is the integration of starting material.
# [3] = Plasma Stability Assay (Example A2), human plasma; assay type: in vitro ADME; conditions: 37° C., prodrug remaining
# Experimental: as §1
# [4] = Plasma Stability Assay (Example A3), rat plasma; assay type: in vitro ADME; conditions: 10 μM, 37° C., prodrug remaining
# Source text: (§4) The data is represented in the table below.
# [5] = Metabolic Stability in Human Hepatocytes; assay type: in vitro ADME; conditions: cryopreserved human hepatocytes, 5×10^5 viable cells/mL, 37° C.
# Experimental: A 2.5 uL aliquot of 100 μM test compound was incubated with 247.5 uL of cryopreserved hepatocytes suspended in serum-free incubation medium at 5×10^5 viable cells/mL. The mixture was incubated at 37° C. and shaken at 500 rpm for the designated time points (0.5, 15, 30, 60, 90, or 120 min). At each time point, 25 μL aliquot of incubation mixture was transferred to 125 μL of cold acetonitrile containing internal standard, followed by centrifugation for 30 min at 3,220 g. 100 μL of supernatant was mixed with 100 μL of distilled water for analysis by LC-MS/MS. Peak areas were determined from extracted ion chromatograms and in vitro half-life (t1/2) was determined from the concentration vs time regression slope, in vitro t1/2=0.693/k. Conversion of the in vitro t1/2 (in min) into the in vitro intrinsic clearance (in vitro CLint, in μL/min/10^6 cells) is done using: in vitro CLint=kV/N.
# [6] = Hydrolysis Assay - Condition 2 (DI Water); assay type: physicochemical; conditions: 25° C., 0.5 mM
# Experimental: 50 uL of compound (10 mM) in DMSO was diluted into 950 uL of DI water to a final concentration of 0.5 mM. The hydrolysis kinetics were conducted at 25° C. and measured by LCMS at a certain time interval.
# as §2, §3
# [7] = Plasma Stability Assay (Example A3), human plasma; assay type: in vitro ADME; conditions: 10 μM, 37° C., prodrug remaining
# Source text: as §4
# in vivo = assay type: in vivo, male C57BL/6 mice; conditions: 321 IV 2 mg/kg, mice
# Experimental: Total fifteen male mice were used in this study with n=3 mice/time point with sparse sampling study design. Animals were administered through intravenous route with solution formulation of 321 at 2 mg/kg dose.
# The extraction procedure for plasma/brain samples and the spiked plasma/brain calibration standards were identical (PMSF Stabilized Plasma and Brain used for Preparation of calibration standards): A 20 μL of study sample plasma/brain or spiked plasma/brain calibration standard was added to individual pre-labeled micro-centrifuge tubes followed by 200 μL of internal standard prepared in acetonitrile (Rosuvastatin, 50 ng/mL) was added except for blank, where 200 μL of acetonitrile was added. Samples were vortexed for 5 minutes. Samples were centrifuged for 10 minutes at a speed of 4000 rpm at 4° C. Following centrifugation, 200 μL of clear supernatant was transferred in 96 well plates and analyzed using LC-MS/MS.
# Brain samples were diluted (1-part of tissue: 2-part of buffer) and homogenized. The homogenate was submitted for bioanalysis and the concentrations (ng/mL) received were corrected with dilution factor (3×) and the final reported concentrations were represented in ng/g.
# The plasma and brain concentration-time data of 321 and 001 were used for the pharmacokinetic analysis.
# [8] = male, C57BL/6, mouse, in vivo, 321, read-out: Brain concentrations (mean)
# [9] = male, C57BL/6, mouse, in vivo, 321, read-out: Plasma concentrations (mean)
smiles,measurement,setting,value
"COc1ccc([C@@]23CCC(OP(=O)(OC(C)C)OC(C)C)=C[C@@H]2N(C)CC3)cc1OC [Compound 321, [(3aS,7aS)-3a-(3,4-dimethoxyphenyl)-1-methyl-3,4,5,7a-tetrahydro-2H-indol-6-yl]diisopropyl phosphate]",Prodrug (%),[1]; 0 min,100%
same,Prodrug (%),[1]; 15 min,77.3%
same,Prodrug (%),[1]; 30 min,74.5%
same,Prodrug (%),[1]; 60 min,58.4%
same,Prodrug (%),[1]; 120 min,43.1%
same,Prodrug (%),[1]; 240 min,31.7%
same,Conversion (%),[2]; 1 min,0%
same,Conversion (%),[2]; 5 min,0%
same,Conversion (%),[2]; 30 min,0%
same,Conversion (%),[2]; 1 h,0%
same,Conversion (%),[2]; 4 h,0%
same,Conversion (%),[2]; 24 h,0%
same,Prodrug (%),[3]; 0 min,100%
same,Prodrug (%),[3]; 15 min,>99%
same,Prodrug (%),[3]; 30 min,>99%
same,Prodrug (%),[3]; 60 min,>99%
same,Prodrug (%),[3]; 120 min,>99%
same,Prodrug (%),[3]; 240 min,78.2%
same,Prodrug (%),[4]; 0 min,100.0%
same,Prodrug (%),[4]; 10 min,74.0%
same,Prodrug (%),[4]; 30 min,69.8%
same,Prodrug (%),[4]; 60 min,69.2%
same,Prodrug (%),[4]; 120 min,68.4%
same,Prodrug (%),[4]; 240 min,65.7%
same,t1/2,[5],23 min
same,Conversion (%),[6]; 1 min,0%
same,Conversion (%),[6]; 5 min,0%
same,Conversion (%),[6]; 30 min,0%
same,Conversion (%),[6]; 1 h,0%
same,Conversion (%),[6]; 4 h,0%
same,Conversion (%),[6]; 24 h,0%
same,Prodrug (%),[7]; 0 min,100.0%
same,Prodrug (%),[7]; 10 min,>99%
same,Prodrug (%),[7]; 30 min,>99%
same,Prodrug (%),[7]; 60 min,98.1%
same,Prodrug (%),[7]; 120 min,94.5%
same,Prodrug (%),[7]; 240 min,96.3%
same,Brain-Kp,in vivo; 321,0.28
same,brain concentrations quantifiable up to,in vivo; 321,≤ 0.5 h
same,plasma concentrations quantifiable up to,in vivo; 321,up to 2 h
same,T1/2,in vivo; 321 in Brain,6.6 min
same,Vss,in vivo; 321 in Brain,10.34 L/kg
same,CL,"in vivo; 321 in Brain, marked NR (not reportable)",NR (1154.07) mL/min/kg
same,AUClast,in vivo; 321 in Plasma,0.09714 µg·h/mL
same,C0 (back extrapolated concentration),in vivo; 321 in Plasma,0.50364 µg/mL
same,CL,in vivo; 321 in Plasma,20.444 L/h/kg
same,T1/2,in vivo; 321 in Plasma,21.6 min
same,Vss,in vivo; 321 in Plasma,4.80 L/kg
same,concentration at 0.08 h,in vivo; [8],99.6 ng/g
same,concentration at 0.08 h,in vivo; [9],0.305 µg/mL
same,concentration at 0.25 h,in vivo; [8],37.1 ng/g
same,concentration at 0.25 h,in vivo; [9],0.105 µg/mL
same,concentration at 0.5 h,in vivo; [8],7.89 ng/g
same,concentration at 0.5 h,in vivo; [9],0.0262 µg/mL
same,concentration at 1 h,"in vivo; male, C57BL/6, mouse, in vivo, 321, 1 h, read-out: Plasma concentrations (mean)",0.00857 µg/mL
same,concentration at 2 h,"in vivo; male, C57BL/6, mouse, in vivo, 321, 2 h, average of two values, read-out: Plasma concentrations (mean)",0.00138 µg/mL
